The conditions of series [1]: powdered form, repeated inhalation of dust; cited from earlier work.
How the values of series [2] were obtained: Pinoxaden (25 g) was added to the respective solvent (75 g) as set out in Table 1 and stirred at 50° C. for 1 hour. After cooling to room temperature (RT) the sample was visually checked for solid residues.
Where there were no residues and the resulting solution was a clear liquid the sample was considered as a “pass”.

Results on three molecules are retold here after patent publication US20240423206A1, “HERBICIDE TRANSPORT SYSTEM” (priority 2021, published 2024).

In the case of `CCc1cc(C)cc(CC)c1-c1c(OC(=O)C(C)(C)C)n2n(c1=O)CCOCC2` [pinoxaden], the respiratory sensitisation result in series [1] is “respiratory sensitizer”. For the molecule “cyclohexanedicarboxylic acid, dinonyl ester”, the Solubility result in series [2] is “Fail”. As for rapeseed oil, the Solubility result in series [2] is reported as “Fail”.
